Source: patent US20170151373A1, “ANTIMICROBIAL SOLUTIONS WITH ENHANCED STABILITY” (Board of Regents, The University of Texas System, priority 2015, published 2017)
Read-outs that look alike come from different tables or passages of the source.

Assays:
[1] = pH measurement of solutions (pH meter); assay type: physicochemical
Protocol: A solution containing disodium EDTA that was pH adjusted using base was prepare by the following method: • 1. Weigh out 300 mg disodium EDTA powder in 30 ml vial, and dissolve in 9.3 mL sterile water. Shake EDTA and sterile water until completely dissolved. QS to 10 ml with water. […] Measure pH, Add 1M NaOH recording volume added and remeasure pH.
A solution containing tetrasodium EDTA pH adjusted with disodium EDTA was prepared by the following method: • 1. Weigh out 300 mg disodium EDTA powder in 30 ml vial, and dissolve in 9.3 mL sterile water. Shake EDTA and sterile water until completely dissolved. QS to 10 ml with water. […] Weigh out 300 mg tetrasodium EDTA powder in 30 ml vial, and dissolve in 9.3 mL sterile water. Shake EDTA and sterile water until completely dissolved. QS to 10 ml with water. […] Measure pH of tetrasodium EDTA and add disodium EDTA recording volume added and pH after each addition • The following solutions were produced:
7. Prepare 19 syringes with 1 mL in each syringe. (1-3 mL sterile syringe can be used) Label the syringes and protect from light. • The pH from seven syringes, sampled randomly, were measured using a pH meter.

[2] = cited from earlier work; for fraction of EDTA that is tetravalent: 0.1 Molar (Harris 2010)

`O=C([O-])CN(CCN(CC(=O)O)CC(=O)O)CC(=O)[O-].[Na+].[Na+]` [3% disodium EDTA, Ethylenediamine-N,N,N′,N′,-tetraacetic acid, disodium salt] showed a pH ([1]; 10 ml 3% disodium EDTA, total volume 1M NaOH added 0) of 4.5, a pH ([1]; 10 ml 3% disodium EDTA, total volume 1M NaOH added 0.5 ml) of 4.9 and a pH ([1]; 10 ml 3% disodium EDTA, total volume 1M NaOH added 1.0 ml) of 5.4. The pH ([1]; 10 ml 3% disodium EDTA, total volume 1M NaOH added 1.5 ml) was 6.9 and the pH ([1]; 10 ml 3% disodium EDTA, total volume 1M NaOH added 1.7 ml) was 7.4.
With `O=C([O-])CN(CCN(CC(=O)[O-])CC(=O)[O-])CC(=O)[O-].[Na+].[Na+].[Na+].[Na+]` [3% tetrasodium EDTA, Ethylenediamine-N,N,N′,N′-tetraacetic acid, tetrasodium salt] the pH ([1]; 5 ml 3% tetrasodium EDTA, total volume 3% disodium EDTA added 0) was 10.9, the pH ([1]; 5 ml 3% tetrasodium EDTA, total volume 3% disodium EDTA added 1 ml) was 10.2 and the pH ([1]; 5 ml 3% tetrasodium EDTA, total volume 3% disodium EDTA added 2 ml) was 9.5. The pH ([1]; 5 ml 3% tetrasodium EDTA, total volume 3% disodium EDTA added 3 ml) was 9.0, the pH ([1]; 5 ml 3% tetrasodium EDTA, total volume 3% disodium EDTA added 4 ml) was 8.8 and the pH ([1]; 5 ml 3% tetrasodium EDTA, total volume 3% disodium EDTA added 5 ml) was 8.1. The pH ([1]; 5 ml 3% tetrasodium EDTA, total volume 3% disodium EDTA added 6 ml) was 7.1.
For `O=C([O-])CN(CCN(CC(=O)[O-])CC(=O)O)CC(=O)[O-].[Na+].[Na+].[Na+]` [Trisodium EDTA, Ethylenediamine-N,N,N′,N′,-tetraacetic acid, trisodium salt], the pH ([2]; vendor product (Dissolvine NA3-36)) is listed as 9.5.
For `O=C(O)CN(CCN(CC(=O)O)CC(=O)O)CC(=O)O` [pure tetra-acid EDTA, Ethylenediamine-N,N,N′,N′,-tetraacetic acid], the pH ([1]; in water/ethanol, Example 1) is given as 3.1, the “fraction of EDTA that is tetravalent” value ([2]; pH 6, 20 degrees Celsius) is given as “about 0.000018” and the “fraction of EDTA that is tetravalent” value ([2]; pH 8, 20 degrees Celsius) is given as “about 0.0042”.
